# Test results reported in PubChem BioAssay (NCI).
#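 Where inhibition never reached the appropriate level, the endpoint shown equals the highest concentration tested. Otherwise, values were interpolated linearly from a five-concentration, 48-hour dose response in 96-well plates. At the GI50, growth is halved. The concentration for full growth arrest is given as TGI.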
# What was measured:
# Assay in all cases: NCI-60 cell line screen, 48 h
# OVCAR-8 ovarian = system: OVCAR-8 ovarian
# NCI-H226 lung = system: NCI-H226 lung
# A498 renal = system: A498 renal
# HL-60(TB) leukemia = system: HL-60(TB) leukemia
# U251 CNS = system: U251 CNS
# SNB-19 CNS = system: SNB-19 CNS
# HCC-2998 colon = system: HCC-2998 colon
# ACHN renal = system: ACHN renal
# HCT-116 colon = system: HCT-116 colon
# CCRF-CEM leukemia = system: CCRF-CEM leukemia
# PC-3 prostate = system: PC-3 prostate
# KM12 colon = system: KM12 colon
# HOP-62 NSCLC = system: HOP-62 NSCLC
# OVCAR-4 ovarian = system: OVCAR-4 ovarian
# SK-OV-3 ovarian = system: SK-OV-3 ovarian
# SF-295 CNS = system: SF-295 CNS
# HCT-15 colon = system: HCT-15 colon
# HS 578T breast = system: HS 578T breast
# MOLT-4 leukemia = system: MOLT-4 leukemia
# DU-145 prostate = system: DU-145 prostate
# SN12C renal = system: SN12C renal
# BT-549 breast = system: BT-549 breast
# RXF 393 renal = system: RXF 393 renal
# SK-MEL-2 melanoma = system: SK-MEL-2 melanoma
# OVCAR-5 ovarian = system: OVCAR-5 ovarian
# LOX IMVI melanoma = system: LOX IMVI melanoma
# CAKI-1 renal = system: CAKI-1 renal
# OVCAR-3 ovarian = system: OVCAR-3 ovarian
# EKVX NSCLC = system: EKVX NSCLC
structure (smiles),measurement,setting,value
COc1ccc2[nH]cc(-c3nc(N)nnc3-c3cn(C)c4ccc(Br)cc34)c2c1,TGI,OVCAR-8 ovarian,> 100 µM
same,GI50,NCI-H226 lung,4.29 µM
same,TGI,NCI-H226 lung,39.8 µM
same,GI50,A498 renal,2.11 µM
same,TGI,A498 renal,6.09 µM
same,GI50,HL-60(TB) leukemia,3.41 µM
same,TGI,HL-60(TB) leukemia,> 100 µM
same,GI50,U251 CNS,3.82 µM
same,TGI,U251 CNS,26.4 µM
same,GI50,SNB-19 CNS,4.09 µM
same,TGI,SNB-19 CNS,20.1 µM
same,GI50,HCC-2998 colon,6.26 µM
same,TGI,HCC-2998 colon,23.7 µM
same,GI50,ACHN renal,4.94 µM
same,TGI,ACHN renal,32 µM
same,GI50,HCT-116 colon,3.7 µM
same,TGI,HCT-116 colon,23.7 µM
same,GI50,CCRF-CEM leukemia,3.57 µM
same,TGI,CCRF-CEM leukemia,> 100 µM
same,GI50,PC-3 prostate,2.62 µM
same,TGI,PC-3 prostate,22.7 µM
same,GI50,KM12 colon,2.86 µM
same,TGI,KM12 colon,18.7 µM
same,GI50,HOP-62 NSCLC,4.52 µM
same,TGI,HOP-62 NSCLC,26.2 µM
same,GI50,OVCAR-4 ovarian,4.61 µM
same,TGI,OVCAR-4 ovarian,84 µM
same,GI50,SK-OV-3 ovarian,4.29 µM
same,TGI,SK-OV-3 ovarian,32.2 µM
same,GI50,SF-295 CNS,2.8 µM
same,TGI,SF-295 CNS,13 µM
same,GI50,HCT-15 colon,2.86 µM
same,TGI,HCT-15 colon,22 µM
same,GI50,HS 578T breast,2.3 µM
same,TGI,HS 578T breast,8.63 µM
same,GI50,MOLT-4 leukemia,3.73 µM
same,TGI,MOLT-4 leukemia,> 100 µM
same,GI50,DU-145 prostate,4.23 µM
same,TGI,DU-145 prostate,21.8 µM
same,GI50,SN12C renal,4.5 µM
same,TGI,SN12C renal,22.8 µM
same,GI50,BT-549 breast,4.19 µM
same,TGI,BT-549 breast,24.8 µM
same,GI50,RXF 393 renal,1.8 µM
same,TGI,RXF 393 renal,4.68 µM
same,GI50,SK-MEL-2 melanoma,4.02 µM
same,TGI,SK-MEL-2 melanoma,20.8 µM
same,GI50,OVCAR-5 ovarian,4.61 µM
same,TGI,OVCAR-5 ovarian,30.6 µM
same,GI50,LOX IMVI melanoma,3.89 µM
same,TGI,LOX IMVI melanoma,19.9 µM
same,GI50,CAKI-1 renal,1.29 µM
same,TGI,CAKI-1 renal,19.5 µM
same,GI50,OVCAR-3 ovarian,2.9 µM
same,TGI,OVCAR-3 ovarian,10.6 µM
same,GI50,EKVX NSCLC,3.95 µM
same,TGI,EKVX NSCLC,30.2 µM
